The results in this text go back to US20210317143A9, “BORONIC ESTER PRODRUGS AND USES THEREOF” (Massachusetts Institute of Technology, priority 2019, published 2021).

The structures appear in SMILES notation.

One data set deals with MM.1S cells. Description: In vitro cell viability assay (Celltiter glo) in MM.1S. Particulars: Homo sapiens, MM1.S, effect on cell proliferation after 48 h of incubation. In kind it is cell-based. As for the experimental part:
(§1) The effect on cell proliferation after 48 h of incubation with each agent was compared.
(§2) Both cell lines were cultured in RPMI media (ThermoFisher Scientific) supplemented with 10% FBS (VWR), 1% Penicillin/Streptomycin (ThermoFisher Scientific), and 1% glutamine (ThermoFisher Scientific). MM.1SLuc+/GFP+ cells were generated by retroviral transduction and authenticated by short tandem repeat DNA profiling. All cell lines were confirmed to be mycoplasma negative using the kit MycoAlert Mycoplasma (Lonza). Cell lines were housed in 5% CO2 and 37° C., incubators.
(§3) Cells were plated at 10,000 cells/well in a 96 well plate overnight and then treated for 48 hours with either bortezomib (Btz) or Btz-bottlebrush (BBP) at various concentrations. Cell viability assay was performed using the Celltiter glo reagent kit (Promega).
(§4) Toxicological studies were carried out including in vitro cell viability experiments and in vivo survivability studies (FIGS. 8A to 8B and FIG. 9A, respectively). The in vitro cell viability studies were carried out in both MM S model (for experimental details see Manier, S, et al., Science Translational Medicine 2017, 9, 389) and KMS11 flank cancer model. […] For the maximum tolerated dose (MTD) studies, animals (n=3-5) were dosed 4 times, with the exception that the 20 mg/kg group was dosed three times.
In general terms: In ATP-based viability assays light output follows the ATP content of the culture.

For another data set, the system named is KMS11 cells. Description: In vitro cell viability assay (Celltiter glo) in KMS11. It counts as cell-based. The conditions noted are these: Homo sapiens, KMS-11; KMS11, effect on cell proliferation after 48 h of incubation. On the procedure:
as §1, §2, §3, §4

The subject of the next data set is KMS11 subcutaneous tumor. Description: Efficacy study in subcutaneous model of MM (KMS11). In kind it is in vivo, mice. The conditions noted are these: 0.75 mg/kg twice a week (Btz at MTD; Btz-BBP dose-match, intravenous).
The subject of the next data set is MM.1SLuc+/GFP+ cells. Particulars: 0.75 mg/kg (free Btz MTD; Btz-BBP dose-match).
Another data set has as its system healthy BALB/c mice. Description: In vivo toxicity / maximum tolerated dose in healthy BALB/c mice. The conditions noted are these: twice a week. On the procedure:
(§5) Mice were euthanized if their body weight reached a 20% loss.
as §4

Test in data set [1]: as above
The conditions noted are these: BALB/c, mouse, in vivo, subcutaneous. As for the experimental part:
as §5, §4

Procedure for KMS11 subcutaneous tumor: Treatments were administered over a period of 50 days, after which tumor were left to freely progress.
The subcutaneous model of MM was generated with an injection of 3 million KMS11 cells in the hind flank of NCR nude mice. […] Tumor growth was monitor by caliper measurements (tumor measurement. TM). Once the tumor reached 1 cm in diameter, mice were randomly attributed to a treatment group. […] Drug was injected twice a week for a period of 4 weeks (8 injections in total) after mice were enrolled in the study. Mice body weight were tracked till day 50 (body weight measurement, BWM). Animals were sacrificed once the tumor reached 2 cm in the longest axis.
Procedure for MM.1SLuc+/GFP+ cells: The tumors were induced via intravenous injection of MM.1SLuc+/GFP+ cells, and tumor progression was quantified by bioluminescence via the luciferase signal expressed by the MM.1S cells (FIGS. 12A to 12F). […] Mice (n=5) were treated for 30 days with the same treatment groups and dosing schedule described in the previous tumor model.
The orthotopic model of MM was obtained by injecting intravenously 1.5 million MM.1SLuc+/GFP+ cells in the tail vain of SCID/beige mice. Tumor dissemination was assessed by IVIS imaging (IVIS Spectrum. Perkin Elmer, bioluminescence imaging, BLI) once a week. […] Drug was injected twice a week for a period of 2 weeks (4 injections in total). Tumor burden response was obtained by IVIS imaging performed once a week. After 25 days, treatment was stopped. Endpoint criteria of the study was hind limb paralysis or loss of >20% of their initial body weight.

For orientation: IC50 means the point on the concentration scale where inhibition reaches its midpoint. Low readings indicate greater potency, high ones weaker potency. What is called MTD is the highest dose tested that stayed within the study's limit of toxicity. High values mean a wide tolerated range, low ones a narrow tolerated range. Consider `CC(C)C[C@H](NC(=O)[C@H](Cc1ccccc1)NC(=O)c1cnccn1)B(O)O` [Btz, bortezomib], for which the values for the IC50 in the data set with MM.1S cells and in the data set with KMS11 cells were 3.5 ± 1.4 nM and 29.9 ± 1.6 nM, respectively. The compound further registered a mean survival time with KMS11 subcutaneous tumor of 42 ± 6 days. Also, the therapeutic improvement entry in the data set on MM.1SLuc+/GFP+ cells is given as “diminished improvements”. Besides, the “survival rates at higher doses” value with healthy BALB/c mice (free Btz above 0.75 mg/kg (1, 1.25 mg/kg)) is recorded as “rapid decrease of the survival rates”. In the data set with healthy BALB/c mice (healthy BALB/c mice), the “well-tolerated / safe dose” value is 0.75 mg/kg. This compound showed an MTD at 4 weeks in data set [1] of 0.75 mg/kg.
